From patent US20100331330A1, “METHODS AND COMPOSITIONS FOR TREATING ISCHEMIC STROKE” (priority 2006, published 2010)
“Also recorded” adds a separate entry of the source. Where two headings read alike, the source gives them in different places.

Columns and labels:
LPL mRNA = test: Lipoprotein lipase (LPL) mRNA by real time PCR after MCAO; type: in vivo, rat; settings: rosiglitazone 0.1 mg/kg, pioglitazone 1.0 mg/kg; 24 h before and at time of 2 hour MCAO; tissue 24 h later
Excerpt: At the time of sacrifice the animal was placed in an anesthesia chamber and exposed to 5% halothane, 30% oxygen, 65% nitrous oxide until it ceased breathing. The rat was the, processed for either histologic and immunocytochemical analysis or decapitated and the brain immediately dissected for mRNA isolation. Animals used for immunohistochemistry underwent intracardiac perfusion; the thoracic cavity was opened, a blunt needle placed through the left ventricle into the aorta and the right atrium cut. Animals were perfused through the heart, first with 0.1 M phosphate buffer and then with 4% paraformaldehyde (pH 7.4). The brain was removed from the rat and immersion fixed in 4% paraformaldehyde for an additional hour. Tissue was then transferred to 30% sucrose in phosphate buffer in order to cyroprotect it. Brains were mounted in OCT sectioning medium and frozen sections cut at either twenty microns (for infarct volume determination) or ten microns (for immunocytochemistry). Animals used in real time PCR experiments were decapitated after euthanasia and the brain quickly removed.
A 2 mm thick coronal slice of tissue through the area of maximal infarction was quickly homogenized in Trizol (Gibco BRL, Rockville, Md.). […] RNA was isolated using Life Technologies Protocol (Rockville, Md.), and cDNA synthesized from 1.5 μg of total RNA. […]

dopaminergic cell death = settings: Parkinson's disease model; cited from earlier work
ICAM mRNA = ICAM mRNA by real time PCR after MCAO; type: in vivo, rat; settings: rosiglitazone 0.1 mg/kg or pioglitazone 1 mg/kg 24 h before and at time of 2 hour MCAO; sacrificed 24 h later
3T3-L1 cells = settings: cited from earlier work
ICAM = ICAM immunohistochemistry of brain sections after MCAO; type: in vivo, rat; settings: rosiglitazone 0.1 mg/kg or pioglitazone 1 mg/kg 24 h before and at time of MCAO; sacrificed 24 h later
Excerpt: Animals were euthanized and brains prepared in the same manner described for infarct volume determination. Frozen sections of the brains were cut coronally at ten microns. Sections were collected every 1000 mm beginning at the level of the forceps minor corpus callosum and extending through the hippocampus. Ten micron cryostat sections were labeled using either mouse anti-ICAM (Sertec, UK) or rabbit antimyeloperoxidase (Dacko) antibodies in 5% rat serum. Primary antibodies were visualized using either goat anti-mouse conjugated to Oregon Green or goat anti-rabbit conjugated to Oregon-Green (Molecular Probes, Eugene, Oreg.) in 5% rat serum. Adjacent sections were incubated without primary antisera to control for non-specific binding of the secondary antiserum. Sections were viewed using a fluorescent microscope and images acquired and stored using Spot Advanced imaging software (Spot Image Corporation, Chantilly, Va.). Some sections were also imaged using confocal microscopy.

[1] = two hour continuous monitoring; previously shown; cited from earlier work
[2] = tested on: rodent models of cerebral ischemia; settings: cited from earlier work
[3] = tested on: rats subjected to middle cerebral artery occlusion (MCAO); settings: for infarction volume relative to vehicle injected rats: assayed 24 h after MCAO
Excerpt: Male Wistar rats, 250-350 g, were obtained from Charles River (Wilmington, Mass.). Animals were housed and cared for in the Animal Resource Center and allowed free access to food and water before and after surgery. All procedures were approved by the Institutional Animal Care and Use Committee of Case Western Reserve University.
A 4.0 nylon suture with a flame rounded tip was advanced through the internal carotid artery to occlude the MCA while cerebral blood flow was monitored using laser doppler (Perimed AB, Jarfalla, Sweden). At the time of reperfusion rats were again anesthetized and the suture removed with cerebral blood flow monitoring to ensure reperfusion. Arterial blood pressure, arterial blood gases and temperature were all monitored and controlled during the length of the procedure.
Control animals were injected with 0.1 ml DMSO.
Rats were euthanized by exposure to 5% halothane until breathing ceased. They then underwent intracardiac perfusion first with PBS and then with 4% paraformaldehyde. Brains were isolated and immersion fixed in 4% paraformaldehyde overnight. Tissue was cryoprotected in 30% sucrose in PBS. Twenty micron frozen sections were collected every […] beginning at the level of the forceps minor corpus callosum and extending through the hippocampus. Sections were stained with Thionin and the area of infarction measured using Bioquant computer software (R&M Biometrics, Nashville, Tenn.) by subtracting the uninfarcted tissue in the ischemic hemisphere from the volume of the contralateral hemisphere. This method corrects for post-ischemic edema.
Male Wistar rats, 250-350 g, were obtained from Charles River (Wilmington, Mass.). […] Animals were housed and cared for in the Animal Resource Center and allowed free access to food and water before and after surgery. […] The tail artery was exposed and cannulated to measure mean arterial blood pressure and to obtain blood for blood gas measurements during surgery. Animals in which normal temperature, blood pressure and gases could not be maintained were excluded from the study. MCAO was performed as previously described. Briefly, the bifurcation of the common carotid artery was exposed. The external carotid artery was isolated and a suture placed 0.5 cm from the bifurcation. Following electrocoagulation distal to the suture the external carotid was cut between the suture and the electrocoagulated segment. A suture was applied to the common carotid artery such that it could be removed later. A loop of suture was then placed under the internal carotid artery and the artery elevated to transiently occlude blood flow. A small nick was made in the wall of the external carotid artery. Through this nick a 22 mm length of 4.0 Ethicon suture, its tip rounded by heating near a flame, was gently threaded from the external to the internal carotid artery lumen to a distance of 18 mm from the bifurcation of the carotid. The thread was held in place with a suture around the stump of the external carotid artery and the suture around the internal carotid artery released. The catheter was removed from the tail artery and both incisions were closed. The rats were then allowed to recover from anesthesia. […] The neck incision was reopened and the 4.0 Ethicon suture removed. The suture that held it in place was tightened and the suture around the common carotid artery was removed. After confirmation of reperfusion by visual inspection, the incision was closed and the animal allowed to recover.
Twenty micron frozen sections of paraformaldehyde fixed brains were collected every 1000 μm beginning at the level of the forceps minor corpus callosum and extending through the hippocampus. The slides were stained with Thionin. The sections were then trans-illuminated and the image transmitted to a computer screen.

myeloperoxidase-IR cells = test: Quantification of myeloperoxidase-IR cells (leukocyte infiltration) after MCAO; type: in vivo, rat
Excerpt: Frozen sections of the brains were cut coronally at ten microns. Sections were collected every 1000 mm beginning at the level of the forceps minor corpus callosum and extending through the hippocampus. Ten micron cryostat sections were labeled using either mouse anti-ICAM (Sertec, UK) or rabbit antimyeloperoxidase (Dacko) antibodies in 5% rat serum. Primary antibodies were visualized using either goat anti-mouse conjugated to Oregon Green or goat anti-rabbit conjugated to Oregon-Green (Molecular Probes, Eugene, Oreg.) in 5% rat serum. Adjacent sections were incubated without primary antisera to control for non-specific binding of the secondary antiserum. Sections were viewed using a fluorescent microscope and images acquired and stored using Spot Advanced imaging software (Spot Image Corporation, Chantilly, Va.). […]
Myeloperoxidase-IR cells were quantified from cryostat sections through the maximal area of infarction labeled with rabbit anti-myeloperoxidase antibody followed by anti-rabbit antibodies conjugated to Oregon-green. Digital photographs of high powered fields covering a representative section were analyzed in Adobe Photoshop by overlaying a grid and counting all myeloperoxidase-IR cells. The average number of myeloperoxidase-IR cells per high powered field (360 μm2) was calculated and plotted using data from at least three animals.

In the case of CCc1ccc(CCOc2ccc(CC3SC(=O)NC3=O)cc2)nc1 (stereo not shown) [pioglitazone, 5-[4-[2-(5-ethylpyridin-2-yl)ethoxyl]benzyl]thiazolidine-2,4-dione], the “increase in LPL mRNA levels within the ischemic hemisphere” value (LPL mRNA) is listed as 307%, the dopaminergic cell death (dopaminergic cell death) is listed as “attenuates dopaminergic cell death” and the “ICAM mRNA compared with vehicle treated rats” value (ICAM mRNA) is listed as “significant reduction in ICAM mRNA”. The “effect on PPARγ-corepressor complex” value (3T3-L1 cells) was “dissociation of the PPARγ-corepressor complex and transcriptional activation”, the “ICAM-IR in brain sections compared with vehicle treated rats” value (ICAM) was “less is seen” and the cerebral blood flow [1] was “no significant change in cerebral blood flow”. For the same molecule, the “neuroprotection in rodent models of cerebral ischemia” value ([2]; in vivo) was “effective neuroprotective agents”, the “efficacy of oral pretreatment” value ([2]; permanent ischemia) was “but not permanent ischemia” and the “efficacy of oral pretreatment” value ([2]; transient ischemia) was “effective in transient”. The “infarction volume relative to vehicle injected rats” value ([3]; 0.5 mg/kg IP 24 h before and at time of 2 hour MCAO) was “did not significantly reduce infarction volume”, the “infarct volume compared to vehicle treated rats” value ([3]; 1 mg/kg IP 1 hour after onset of 2 hour MCAO) was “significantly reduce infarction volume; also recorded: significantly reduced” and the “infarct volume compared to vehicle treated rats” value ([3]; 1 mg/kg IP 6 hours after onset of 2 hour MCAO) was “not when given three or six hours after MCAO; also recorded: no significant change in infarct volume”. The “infarction volume relative to vehicle injected rats” value ([3]; 1 mg/kg IP 24 h before and at time of 2 hour MCAO) was “significantly reduced infarction size”, the “infarction volume relative to vehicle injected rats” value ([3]; 1 mg/kg IP 24 h before and at time of 2 hour MCAO, listed as Pioglitazone) was “did significantly reduce infarction volume; also recorded: significantly reduced infarction volume” and the “infarction volume relative to vehicle treated rats” value ([3]; 1 mg/kg IP 24 h before and at time of MCAO, permanent occlusion, listed as Pioglitazone) was “no significant protection was evident”. The “infarction volume relative to vehicle injected rats” value ([3]; 3.5 mg/kg IP 24 h before and at time of 2 hour MCAO) was “did significantly reduce infarction volume”, the “infarction volume relative to vehicle injected rats” value ([3]; 7 mg/kg IP 24 h before and at time of 2 hour MCAO) was “protection was lost” and the “optimal dose for neuroprotection” value ([3]; IP 24 h before and at time of 2 hour MCAO, infarct volume 24 h after MCAO) was 1 mg/kg. For the same molecule, the “infarct volume compared to vehicle treated rats” value ([3]; pioglitazone 1 mg/kg or rosiglitazone 0.1 mg/kg 3 hours after MCAO onset, reperfusion at 2 hours (before treatment)) was “not when given three or six hours after MCAO; also recorded: infarction volumes which were similar to animals injected with vehicle; also recorded: no significant change in infarct volume; also recorded: infarction volumes similar to those previously seen in untreated and vehicle treated rats”, the “infarction volume relative to rats reperfused at two hours” value ([3]; pioglitazone 1 mg/kg or rosiglitazone 0.1 mg/kg 3 hours after MCAO onset, reperfusion at 3 hours 15 minutes (after treatment)) was “neuroprotective when given up to three hours after MCAO, but only if reperfusion occurs after treatment; also recorded: significantly smaller infarctions volumes; also recorded: significantly reduced infarction volumes” and the “myeloperoxidase-IR cells within the ischemic hemisphere” value (myeloperoxidase-IR cells; reperfused at 2 h and treated at 3 h, relative to treated at 3 h and reperfused at 3.25 h) was “significantly increased numbers of myeloperoxidase-IR cells”. The “number of myeloperoxidase-IR cells per high powered field” value (myeloperoxidase-IR cells; rosiglitazone 0.1 mg/kg or pioglitazone 1 mg/kg at 3 h, reperfusion delayed to 3.25 h, relative to reperfusion at 2 h) was “significantly reduced”.
